The values that follow come from patent US20180065940A1, “METAL-BINDING COMPOUNDS, HETEROLOGOUS PRODUCTION AND USES THEREOF” (The Research Foundation for The State University of New York, priority 2015, published 2018).

The subject of series [1] is red blood cell (RBC) membranes. The note with it: 0.03 mg/mL Ybt or 50 mg/mL Ybt-XAD beads in PBS, 37° C.
Experimental: To assess potential disruption of red blood cell (RBC) membranes by Ybt samples, a hemolysis assay was modified from a protocol previously described (Jones et al. 2014. Proc Natl Acad Sci USA 111:12360-12365). Briefly, a 5% RBC solution was prepared by washing sheep blood (HemoStat Laboratories) with PBS until the supernatant became clear. Next, 100 μL of purified 5% RBC solution was incubated with 900 μL of 0.03 mg/mL crude extract Ybt samples (or controls) or 50 mg/mL Ybt-complexed XAD beads (or controls) in PBS over time at 37° C. Triton-X 100 (1% solution) was used to construct a blood lysis standard curve by altering the amount of blood added to each respective sample. For example, for 50 and 100% lysis, 50 and 100 μL of purified 5% RBC solution was mixed with 1% Triton-X (to 1 mL). PBS was used to generate negative controls. Samples were centrifuged and hemolysis quantified by measuring supernatant at 541 nm and comparing to the % blood lysis standard curve.
A short description of series [2]: Gold-binding assay (LC-MS). The note with it: 1 mM Au(III), crude extract 2-5 μM, 2 hours at 22° C. The method, then: Gold-binding Assay To test Ybt or analog gold binding capability, HAuCl4 was used to generate a solution of 1 mM Au(III) in de-ionized water. To this solution, crude extract of Ybt or analog (from samples prepared without FeCl3 addition) was added at a final concentration of 2-5 μM. After incubation for 2 hours at 22° C., the solution was analyzed by LC-MS.

Series [3] can be described thus: Zinc removal with Ybt-modified XAD beads (Zincon assay). The note with it: FIG. 14D. On the procedure:
(§1) Copper Removal Experiments. Copper and zinc removal assessment was completed using the Zincon assay (Sabel et al. 2010. Anal Biochem 397:218-226). Briefly, 40 μL samples (diluted if necessary to keep concentrations less than 4 ppm) were added to 200 μL of borate buffer (65.8 mM; pH=9), and the assay was initiated by adding 10 μL of Zincon solution (1.6 mM). After a five-minute incubation at 20° C., absorbance at 610 nm was measured. Standard curves for Zn and Cu were made using pure salts (Sigma-Aldrich) to allow quantification. The initial measurement provides total metal concentration (zinc and copper together) while the second measurement allows determination of the copper concentration. By subtracting the second reading from the first, zinc concentration is determined. […]
(§2) To test copper removal, 800 μL of copper solution was added to 40 mg of Ybt-modified XAD beads (or controls) and incubated at 30° C. with shaking (for sheep blood and 50% FBS RPMI samples, this temperature was 22° C.). […] The copper content of the original mixture solution and the liquid resulting from the bead washing steps was measured using the Zincon assay described above. […] The removal ability was calculated using the following equation: […]

The nature of series [4]: Copper removal experiments with Ybt-modified XAD beads (Zincon assay). The note with it: fresh beads in three successive applications. The method, then: as §1, §2
Series [5] can be described thus: Rust removal experiments (1,10-phenanthroline assay). On the procedure:
Rust Removal Experiments. A rusted carbon steel tube was machine cut into U-shaped pieces (through the University at Buffalo School of Engineering and Applied Sciences Engineering Machine Shop) and each piece, after cleaning with acetone and rinsing with DI water, immersed in 10 mL Millipore water. Samples were then mixed with 250 μL of methanol or final extracts (about 0.2 mg of Ybt) derived from the larger-scale negative control or Ybt production cultures. Samples were then allowed to incubate at 30° C. with shaking for 2 hours.
Rust removal was quantified through a modification of the 1,10-phenanthroline assay to enable detection using a 96-well plate format. To each well, 40 μL of 0.3% (wt/vol) 1,10-phenanthroline, 40 μL of 1% (wt/vol) hydroxylamine hydrochloride, and 40 μL of 0.1 M ammonium acetate were mixed. […] Absorbance was measured using a microplate reader at a wavelength of 510 nm with concentration measurements determined from a calibration curve of Fe^3+ (Sigma-Aldrich).
To assess total rust removal, metal samples recovered after incubation were washed with water and immersed in a solution of 1% (wt/vol) oxalic acid for 30 minute to remove the remaining rust on the metal surface. Upon quantifying the amount of Fe^3+ removed using the 96-well plate method introduced above, percent rust removal was calculated using the following equation: […]

Series [6] is described as follows: Packed-bed removal from zinc and copper solutions. The note with it: pH 6.5. On the procedure: Copper removal experiments: To test copper removal, 10 grams of each resin (XAD, Chelex 100, and Ybt-XAD) were packed into a 2.5×10 cm glass chromatography column (Bio-Rad). The column was equilibrated with 10 bed volumes of Millipore water before loading the metal solution. The metal solution (˜5 ppm zinc and ˜1 ppm copper; pH adjusted with dilute HCl or NaOH) was pumped (LMI Milton Roy dosing pump) into the column with a continuous flow rate of 1 L/hr. Samples were collected every 30 min. The percent copper or zinc removal was calculated using the following formula: [(Ci−Cf)/Ci]×100, where Ci is the initial copper (or zinc) concentration and Cf is the final concentration. Average selectivity was defined as the ratio of average copper removal (%) to the average zinc removal (%) over the course of the experiment.

A further series relates to RAW264.7 cells. The method, then: Biological Interaction Assays. Cytotoxicity resulting from Ybt samples was determined by the 3-(4, 5-dimethylthiazol-2-yl)-diphenyltetrazolium bromide (MTT) colorimetric assay. Three distinct cell lines (RAW264.7 [macrophage; provided by Dr. Terry Connell, Department of Microbiology and Immunology, University at Buffalo], HeLa [epithelial; provided by Dr. Stelios Andreadis, Department of Chemical and Biological Engineering, University of Buffalo], and NIH3T3 [fibroblast; ATCC]) were cultured in T75 flasks at 37° C./5% CO2. RAW264.7 cells were maintained in medium prepared as follows: 50 mL of FBS (heat inactivated), 5 mL of 100 mM MEM sodium pyruvate, 5 mL of 1 M HEPES buffer, 5 mL of penicillin/streptomycin solution, and 1.25 g of D-(+)-glucose added to 500 mL RPMI-1640 and filter sterilized. HeLa and NIH3T3 cells were maintained in Dulbecco's Modified Eagle Medium (DMEM; Gibco BRL, Grand Island, N.Y.) supplemented with 10% (v/v) FBS (GIBCO) and 1% (v/v) Antibiotic-Antimycotic (A/A; Gibco). […]

The conditions of series [7]: pH 2 (10 mM HCl). The method, then: Based upon the pH removal profiles for Ybt-XAD, the column was tested for regeneration (FIG. 27). […] To select the degree of pH reduction, the Ybt compound was tested for degradation over log-fold differences in HCl concentrations (FIG. 31).

As for `CC(C)(C1=N[C@@](C)(C(=O)O)CS1)[C@H](O)[C@@H]1CSC([C@H]2CSC(c3ccccc3O)=N2)N1` (stereo partly drawn) [Ybt, yersiniabactin], the RBC hemolysis entry in series [1] is on record as “minimal concerns”. For the same compound, in series [2], the “gold binding / complex formation” value is “lack of complexation”. Further, the zinc removal capability result in series [3] is “no discernible capability to remove zinc”. For the same compound, the “copper removal after repeated extractions” value in series [4] is on record as approximately 100%. Besides, the “rust removed, of total rust” value in series [5] (about 0.2 mg of Ybt, 30° C., 2 hours) was “about 20%”. Moreover, the “rust removed relative to the commercial control” value in series [5] (relative to commercial product Rust-Oleum) is on record as “about 40%”. Moreover, in series [6], the “zinc binding in fixed bed” value is listed as “not observed”. Also, the “immunogenicity via NO production from macrophage cells” value in the series with RAW264.7 cells was “minimal concerns”. The “stability (degradation over time)” value in series [7] is “stability”.
